Here are results for three compounds from ChEMBL document CHEMBL1201862, “PubChem BioAssay data set” (2004).

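Interpolation was linear, between the two tested concentrations surrounding the appropriate level; five concentrations were tested over 48 hours in 96-well plates. At the GI50, growth is halved.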 Calls of active or inactive are those of the source. Rule as the data show it: active = GI50 up to about 1.1 µM and inactive = higher.

Among the test systems are RXF 393; Hs-578T; HT-29; OVCAR-3; HCT-116; CCRF-CEM; BT-549; A549; UACC-257; Malme-3M; RPMI-8226; SR; DMS-114; LXFL 529; KM12; OVCAR-5; UACC-62; SK-MEL-5; 786-0; PC-3.
Common to all, as to assay: NCI tumour cell line growth inhibition, 48 h

Turning to `COc1cc(C(=O)c2cocc2C(=O)c2ccc3c(c2)OCO3)cc(OC)c1OC`, the GI50 in the assay on RXF 393 was 0.67 µM (active); with Hs-578T, 0.274 µM (active); in the assay with HT-29, 0.244 µM (active); in the assay on OVCAR-3, 0.304 µM (active); in the assay on HCT-116 it was 0.333 µM (active); with CCRF-CEM it was 0.444 µM (active). The GI50 in the assay with BT-549 is 0.149 µM (active); in the assay with A549, 5.26 µM (inactive); in the assay on UACC-257, 0.531 µM (active); in the assay with Malme-3M, 0.312 µM (active); with RPMI-8226, 0.628 µM (active); in the assay with SR it was 0.611 µM (active). The GI50 was 0.753 µM (active) in the assay on DMS-114; 0.871 µM (active) in the assay on LXFL 529; 0.254 µM (active) in the assay with KM12; 18.6 µM (inactive) in the assay on OVCAR-5; 0.311 µM (active) in the assay on UACC-62; 0.232 µM (active) with SK-MEL-5. The GI50 was 0.57 µM (active) in the assay on 786-0 and 0.355 µM (active) in the assay on PC-3.

Take `O=c1[nH]c(=O)n(C2OC(CO)C(O)C(O)C2O)cc1F` (configuration not stated): the GI50 in the assay on RXF 393 was > 76.2 µM (inactive); in the assay with Hs-578T it was > 100 µM (inactive); in the assay on HT-29, > 100 µM (inactive); in the assay on OVCAR-3, > 100 µM (inactive); with HCT-116 it was > 100 µM (inactive); in the assay with CCRF-CEM it was > 100 µM (inactive). Also, the GI50 with BT-549, with A549, with UACC-257, with Malme-3M, in the assay on RPMI-8226 and in the assay on SR was > 100 µM (inactive) throughout. Moreover, the GI50 in the assay with DMS-114, in the assay on LXFL 529, with KM12, in the assay on OVCAR-5, in the assay with UACC-62 and in the assay with SK-MEL-5 was > 100 µM (inactive) each time. The GI50 with 786-0 and in the assay with PC-3 was > 100 µM (inactive) throughout.

`CC1=Nc2c(O)nc(S)nc2NC(c2ccc(Cl)c(Cl)c2)C1` (configuration not stated): the GI50 in the assay on RXF 393 was 17.5 µM (inactive); with HT-29 it was 24.3 µM (inactive); with OVCAR-3, 17.5 µM (inactive); in the assay with HCT-116, 15.8 µM (inactive); with CCRF-CEM it was > 100 µM (inactive); with A549 it was 21.1 µM (inactive). Moreover, the GI50 is 21 µM (inactive) with UACC-257; > 89.7 µM (inactive) in the assay with Malme-3M; > 100 µM (inactive) with RPMI-8226; > 100 µM (inactive) with SR; 35.6 µM (inactive) in the assay with DMS-114; 19.4 µM (inactive) in the assay on LXFL 529. Moreover, the GI50 in the assay with KM12 is 17.7 µM (inactive); with OVCAR-5 it was > 100 µM (inactive); in the assay on UACC-62 it was 29.8 µM (inactive); in the assay on SK-MEL-5, 23.6 µM (inactive); in the assay on 786-0, 17.7 µM (inactive).
